{"source": "patent US20070231320A1", "about": "“Eggs having increased antibody titer and methods for making same” (priority 2006, published 2007)", "format_in_all_cases": "in vivo, Hyline-98 leghorn hens", "key": {"[1]": {"test_system": "anti-PLA2 antibody titer in egg yolk", "assay": "Egg yolk anti-PLA2 antibody titer by ELISA, second trial: indomethacin or aspirin in feed for 24 h before antigen", "settings": "for anti-PLA2 antibody titer in eggs vs control hens / presence of anti-PLA2 antibodies in eggs: FIG. 2, 50 mg indomethacin/kg diet or 1 g aspirin/kg diet for 24 h before PLA2 injection; for anti-PLA2 antibody titer in eggs vs control hens: 35 and 42 days after exposure; for presence of anti-PLA2 antibodies in eggs: 21 days after exposure", "procedure": "(§1) Eggs were cracked and the yolks and albumin were separated. The antibodies were extracted by a 1:10 dilution of yolk in acidified PBS (pH 5.0) for twelve hours. Antibody titer was assayed by enzyme-linked immunosorbent assay (ELISA) at twenty-eight, thirty-five and forty-two days after exposure to the antigen. Optical density was measured at 450 nm using an HRP enzyme reaction to detect antibody. A standard on each plate was defined as a “positive reaction,” which is defined as twice the optical density of an egg yolk diluted 1:2000 from a hen not immunized against the antigen.\nIn a second set of trials, the hens were divided at 300 days of age into three treatment groups. For twenty-four hours after the groups were established, a control group (n=6) was fed standard breeder's mash, a first test group (n=6) was fed standard breeder's mash supplemented with 50 mg of indomethacin/kg diet, and a second test group (n=6) was fed standard breeder's mash supplemented with 1 g aspirin/kg diet. After twenty-four hours, the three groups were injected at the four sites with 1 ml total of 3 mg PLA2/ml of CFA and PBS in a 50/50 mixture. Booster injections were given as described above.\nAntibody titer was determined as in the first trial at twenty-one, twenty-eight, thirty-five and forty-two days after exposure to the antigen."}, "[2]": {"test_system": "anti-PLA2 antibody titer in egg yolk", "assay": "Egg yolk anti-PLA2 antibody titer by ELISA, third trial: indomethacin or aspirin in feed from day 14 after antigen", "settings": "FIG. 3, inhibitor in feed from day 14 after PLA2 injection; for presence of anti-PLA2 antibodies in eggs: 21 days after exposure", "procedure": "as §1\nIn a third set of experiments, the hens were divided at 245 days of age into three treatment groups. On day one, the three groups were injected at the four sites with 1 ml total of 3 mg PLA2/ml of CFA and PBS in a 50/50 mixture. A control group (n=8) was fed standard breeder's mash for the entire trial. Starting on day fourteen after exposure to the antigen, a first test group (n=8) was fed standard breeder's mash supplemented with 50 mg of indomethacin/kg diet and a second test group (n=8) was fed standard breeder's mash supplemented with 1 g aspirin/kg diet.\nAntibody titer was determined as in the first two trials at twenty-one, twenty-eight and sixty-three days after the injection of PLA2."}, "[3]": {"test_system": "anti-PLA2 antibody titer in egg yolk", "assay": "Egg yolk anti-PLA2 antibody titer by ELISA, first trial: COX inhibitor in feed for 24 h before antigen", "settings": "50 mg indomethacin/kg diet for 24 h before PLA2 injection", "procedure": "Hyline-98 leghorn hens were randomly assigned to treatment groups and given free access to standard breeder's mash and water. In a first set of trials, the hens were divided at 245 days of age into two treatment groups. For twenty four hours after the groups were established, a control group (n=6) was fed standard breeder's mash and a test group (n=6) was fed standard breeder's mash supplemented with 50 mg of indomethacin/ kg diet. After twenty four hours, both groups were injected intramuscularly (i.m.) at four sites (each breast muscle and each leg muscle) with 1 ml total of 3 mg PLA2/ml of complete Freund's adjuvant (CFA; Sigma, St. Louis, Mo.) and phosphate buffered saline (PBS) in a 50/50 mixture. Hens were given an i.m. booster injection over the four sites seven days after initial injection with 1 ml total of a 3 mg PLA2/ml of incomplete Freund's adjuvant (IFA; Sigma) and PBS in a 50/50 mixture.\nas §1"}}}
{"smiles": "CC(=O)Oc1ccccc1C(=O)O", "note": "[aspirin]", "values": [{"measurement": "anti-PLA2 antibody titer of eggs relative to eggs from control hens", "setting": "[1]; 1 g aspirin/kg diet for 24 h before PLA2 injection, 42 days after exposure", "result": "nearly three times"}, {"measurement": "effectiveness at increasing antibody titer, aspirin compared with indomethacin", "setting": "[1]; 1 g aspirin/kg diet vs 50 mg indomethacin/kg diet for 24 h before PLA2 injection", "result": "more effective"}, {"measurement": "anti-PLA2 antibody titer in eggs vs control hens", "setting": "[1]", "result": "significantly increased"}, {"measurement": "presence of anti-PLA2 antibodies in eggs", "setting": "[1]", "result": "had anti-PLA2 antibodies"}, {"measurement": "anti-PLA2 antibody titer in eggs compared to control", "setting": "[2]; 21 and 28 days after exposure", "result": "not significantly different"}, {"measurement": "presence of anti-PLA2 antibodies in eggs", "setting": "[2]", "result": "contained anti-PLA2 antibodies"}, {"measurement": "anti-PLA2 antibody titer in eggs compared to control", "setting": "[2]; 63 days after exposure", "result": "control group had a higher antibody titer"}]}
{"smiles": "COc1ccc2c(c1)c(CC(=O)O)c(C)n2C(=O)c1ccc(Cl)cc1", "note": "[indomethacin]", "values": [{"measurement": "anti-PLA2 antibody titer in eggs vs control hens", "setting": "[1]", "result": "significantly increased"}, {"measurement": "presence of anti-PLA2 antibodies in eggs", "setting": "[1]", "result": "had anti-PLA2 antibodies"}, {"measurement": "anti-PLA2 antibody titer in eggs compared to control", "setting": "[2]; 21 and 28 days after exposure", "result": "not significantly different"}, {"measurement": "presence of anti-PLA2 antibodies in eggs", "setting": "[2]", "result": "contained anti-PLA2 antibodies"}, {"measurement": "anti-PLA2 antibody titer in eggs compared to control", "setting": "[2]; 63 days after exposure", "result": "control group had a higher antibody titer"}, {"measurement": "anti-PLA2 antibody titer of eggs relative to eggs from control hens", "setting": "[3]; 42 days after exposure", "result": "nearly triple"}, {"measurement": "anti-PLA2 antibody titer in eggs vs control hens", "setting": "[3]; FIG. 1, 28, 35 and 42 days after exposure", "result": "significantly increased"}, {"measurement": "presence of antigen-specific anti-PLA2 antibodies in eggs", "setting": "[3]; FIG. 1, by 28 days after exposure", "result": "contained antigen-specific anti-PLA2 antibodies"}]}
